{
  "source": "patent US20230183193A1",
  "about": "“4-DIFLUOROMETHYL BENZOYL AMIDES WITH HERBICIDAL ACTION” (BAYER CROPSCIENCE AKTIENGESELLSCHAFT, priority 2017, published 2023)",
  "key": {"Viola tricolor [1]": {"test_system": "Viola tricolor", "experiment": "Pre-emergence herbicidal action, VIOTR", "format": "in vivo", "details": "for Herbicidal efficacy against VIOTR: Table K", "method_in_brief": "(§1)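 Percent herbicidal activity rated by eye 3 weeks after pre-emergence soil-surface application, compared with untreated pots. Seeds sat under sandy loam; sprays carried 0.2% wetting agent.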"}, "Cyperus serotinus": {"test_system": "Cyperus serotinus", "experiment": "Pre-emergence herbicidal action, CYPES", "format": "in vivo", "method_in_brief": "as §1"}, "Avena fatua [2]": {"test_system": "Avena fatua", "experiment": "Pre-emergence herbicidal action, AVEFA", "format": "in vivo", "method_in_brief": "as §1"}, "Avena fatua [3]": {"test_system": "Avena fatua", "experiment": "Post-emergence herbicidal action, AVEFA", "format": "in vivo", "method_in_brief": "(§2)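 Herbicidal effect is rated visually as percent versus untreated plants (100% = dead, 0% = like control) about 3 weeks after spraying. Plants were sown in sandy loam in the greenhouse and sprayed on green parts at the one-leaf stage, 2 to 3 weeks post-sowing.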"}, "ECHCG [4]": {"test_system": "ECHCG", "experiment": "Post-emergence herbicidal action, ECHCG", "format": "in vivo", "details": "80 g/ha, Table C", "method_in_brief": "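Weed and crop plants grown in sandy loam in the greenhouse, treated at the one-leaf stage 2–3 weeks after sowing. Damage scored visually after about 3 weeks vs untreated controls (0% = control, 100% = dead).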"}, "Alopecurus myosuroides [5]": {"test_system": "Alopecurus myosuroides", "experiment": "Pre-emergence herbicidal action, ALOMY", "format": "in vivo", "method_in_brief": "as §1"}, "Stellaria media [6]": {"test_system": "Stellaria media", "experiment": "Pre-emergence herbicidal action, STEME", "format": "in vivo", "details": "dosage 320 g/ha, scored visually after 3 weeks vs untreated controls", "method_in_brief": "as §1"}, "Stellaria media [7]": {"test_system": "Stellaria media", "experiment": "Post-emergence herbicidal action, STEME", "format": "in vivo", "method_in_brief": "as §2"}, "ECHCG [8]": {"test_system": "ECHCG", "experiment": "Pre-emergence herbicidal action, ECHCG", "format": "in vivo, Echinochloa crus-galli"}, "Abutilon theophrasti [9]": {"test_system": "Abutilon theophrasti", "experiment": "Pre-emergence herbicidal action, ABUTH", "format": "in vivo", "details": "for Herbicidal efficacy against ABUTH: Table K", "method_in_brief": "as §1"}, "Polygonum convolvulus": {"test_system": "Polygonum convolvulus", "experiment": "Pre-emergence herbicidal action, POLCO", "format": "in vivo", "details": "Table K", "from_the_text": "1. Pre-Emergence Herbicidal Action Against Harmful Plants Seeds of monocotyledonous and dicotyledonous weed plants and crop plants are laid out in sandy loam soil in wood-fiber pots and covered with soil. The compounds of the invention, formulated in the form of wettable powders (WP) or as emulsion concentrates (EC), are then applied to the surface of the covering soil in the form of an aqueous suspension or emulsion at a water application rate equating to […], with addition of 0.2% wetting agent. After the treatment, the pots are placed in a greenhouse and kept under good growth conditions for the trial plants. The damage to the test plants is scored visually after a test period of 3 weeks by comparison with untreated controls (herbicidal activity in percent (%): 100% activity=the plants have died, 0% activity=like control plants).\nFor comparison, the herbicidal activity of numerous compounds according to the invention was tested with the structurally closest compounds known from the documents WO 2011/035874, WO 2012/028579 and WO 2012/126932, by the pre- and post-emergence method."}, "Abutilon theophrasti [10]": {"test_system": "Abutilon theophrasti", "experiment": "Post-emergence herbicidal action, ABUTH", "format": "in vivo", "details": "80 g/ha, Table D", "method_in_brief": "as §2"}, "Amaranthus retroflexus [11]": {"test_system": "Amaranthus retroflexus", "experiment": "Post-emergence herbicidal action, AMARE", "format": "in vivo", "details": "80 g/ha, Table D", "method_in_brief": "as §2"}, "Alopecurus myosuroides [12]": {"test_system": "Alopecurus myosuroides", "experiment": "Post-emergence herbicidal action, ALOMY", "format": "in vivo", "details": "20 g/ha", "method_in_brief": "as §2"}, "Matricaria inodora": {"test_system": "Matricaria inodora", "experiment": "Pre-emergence herbicidal action, MATIN", "format": "in vivo", "details": "for Herbicidal efficacy against MATIN: Table K", "method_in_brief": "as §1"}, "Viola tricolor [13]": {"test_system": "Viola tricolor", "experiment": "Post-emergence herbicidal action, VIOTR", "format": "in vivo", "method_in_brief": "as §2"}, "Amaranthus retroflexus [14]": {"test_system": "Amaranthus retroflexus", "experiment": "Pre-emergence herbicidal action, AMARE", "format": "in vivo", "details": "dosage 320 g/ha, scored visually after 3 weeks vs untreated controls", "method_in_brief": "as §1"}, "Pharbitis purpureum": {"test_system": "Pharbitis purpureum", "experiment": "Post-emergence herbicidal action, PHBPU", "format": "in vivo", "details": "80 g/ha, Table D", "method_in_brief": "as §2"}, "Setaria viridis [15]": {"test_system": "Setaria viridis", "experiment": "Post-emergence herbicidal action, SETVI", "format": "in vivo", "method_in_brief": "as §2"}, "Setaria viridis [16]": {"test_system": "Setaria viridis", "experiment": "Pre-emergence herbicidal action, SETVI", "format": "in vivo", "method_in_brief": "as §1"}, "[17]": {"details": "dosage 320 g/ha, scored visually after 3 weeks vs untreated controls"}},
  "data": [
    {"smiles": "Cc1c(C(=O)Nc2ncnn2C)ccc(C(F)F)c1S(C)(=O)=O", "note": "[Example 4-3]", "values": [
      {"measurement": "Herbicidal efficacy against VIOTR", "setting": "Viola tricolor [1]; dosage 80 g/ha", "result": 100},
      {"measurement": "Herbicidal efficacy against VIOTR", "setting": "Viola tricolor [1]; dosage 320 g/ha", "result": 100},
      {"measurement": "herbicidal activity VIOTR", "setting": "Viola tricolor [1]; [17]", "result": 100, "unit": "%"},
      {"measurement": "Herbicidal efficacy against CYPES", "setting": "Cyperus serotinus; 80 g/ha", "result": 100},
      {"measurement": "Herbicidal efficacy against CYPES", "setting": "Cyperus serotinus; 320 g/ha", "result": 100},
      {"measurement": "herbicidal activity CYPES", "setting": "Cyperus serotinus; [17]", "result": 100, "unit": "%"},
      {"measurement": "Herbicidal efficacy against AVEFA", "setting": "Avena fatua [2]; 80 g/ha", "result": 30},
      {"measurement": "Herbicidal efficacy against AVEFA", "setting": "Avena fatua [2]; 320 g/ha", "result": 80},
      {"measurement": "herbicidal activity AVEFA", "setting": "Avena fatua [2]; [17]", "result": 80, "unit": "%"},
      {"measurement": "Herbicidal efficacy against AVEFA", "setting": "Avena fatua [3]; 20 g/ha", "result": 50},
      {"measurement": "herbicidal activity AVEFA", "setting": "Avena fatua [3]; 80 g/ha, Table C", "result": 90, "unit": "%"},
      {"measurement": "Herbicidal activity ECHCG", "setting": "ECHCG [4]", "result": 100, "unit": "%"},
      {"measurement": "Herbicidal efficacy against ALOMY", "setting": "Alopecurus myosuroides [5]; 80 g/ha", "result": 60},
      {"measurement": "Herbicidal efficacy against ALOMY", "setting": "Alopecurus myosuroides [5]; 320 g/ha", "result": 90},
      {"measurement": "herbicidal activity ALOMY", "setting": "Alopecurus myosuroides [5]; [17]", "result": 90, "unit": "%"},
      {"measurement": "Herbicidal activity STEME", "setting": "Stellaria media [6]", "result": 100, "unit": "%"},
      {"measurement": "Herbicidal efficacy against STEME", "setting": "Stellaria media [7]; 20 g/ha", "result": 60},
      {"measurement": "Herbicidal activity STEME", "setting": "Stellaria media [7]; 80 g/ha, Table D", "result": 90, "unit": "%"},
      {"measurement": "Herbicidal efficacy against ECHCG", "setting": "ECHCG [8]; 80 g/ha", "result": 100},
      {"measurement": "Herbicidal efficacy against ECHCG", "setting": "ECHCG [8]; 320 g/ha", "result": 100},
      {"measurement": "Herbicidal efficacy against ABUTH", "setting": "Abutilon theophrasti [9]; dosage 80 g/ha", "result": 100},
      {"measurement": "Herbicidal efficacy against ABUTH", "setting": "Abutilon theophrasti [9]; dosage 320 g/ha", "result": 100},
      {"measurement": "herbicidal activity ABUTH", "setting": "Abutilon theophrasti [9]; [17]", "result": 100, "unit": "%"},
      {"measurement": "Herbicidal efficacy against POLCO", "setting": "Polygonum convolvulus; dosage 80 g/ha", "result": 40},
      {"measurement": "Herbicidal efficacy against POLCO", "setting": "Polygonum convolvulus; dosage 320 g/ha", "result": 70},
      {"measurement": "herbicidal activity ABUTH", "setting": "Abutilon theophrasti [10]", "result": 100, "unit": "%"},
      {"measurement": "herbicidal activity AMARE", "setting": "Amaranthus retroflexus [11]", "result": 100, "unit": "%"},
      {"measurement": "Herbicidal efficacy against ALOMY", "setting": "Alopecurus myosuroides [12]", "result": 30},
      {"measurement": "Herbicidal efficacy against MATIN", "setting": "Matricaria inodora; dosage 80 g/ha", "result": 100},
      {"measurement": "Herbicidal efficacy against MATIN", "setting": "Matricaria inodora; dosage 320 g/ha", "result": 100},
      {"measurement": "herbicidal activity MATIN", "setting": "Matricaria inodora; [17]", "result": 100, "unit": "%"},
      {"measurement": "Herbicidal efficacy against VIOTR", "setting": "Viola tricolor [13]; 20 g/ha", "result": 100},
      {"measurement": "herbicidal activity VIOTR", "setting": "Viola tricolor [13]; 80 g/ha, Table D", "result": 100, "unit": "%"},
      {"measurement": "herbicidal activity AMARE", "setting": "Amaranthus retroflexus [14]", "result": 100, "unit": "%"},
      {"measurement": "Herbicidal activity PHBPU", "setting": "Pharbitis purpureum", "result": 100, "unit": "%"},
      {"measurement": "Herbicidal efficacy against SETVI", "setting": "Setaria viridis [15]; 20 g/ha", "result": 40},
      {"measurement": "herbicidal activity SETVI", "setting": "Setaria viridis [15]; 80 g/ha, Table C", "result": 100, "unit": "%"},
      {"measurement": "Herbicidal efficacy against SETVI", "setting": "Setaria viridis [16]; 80 g/ha", "result": 90},
      {"measurement": "Herbicidal efficacy against SETVI", "setting": "Setaria viridis [16]; 320 g/ha", "result": 100},
      {"measurement": "herbicidal activity SETVI", "setting": "Setaria viridis [16]; [17]", "result": 100, "unit": "%"}
    ]}
  ]
}
